Literature values in patent US10350288B2, “Methods and compositions for treating herpes” (Genocea Biosciences, Inc., priority 2016, dated 2019).
Read-outs that look alike come from different tables or passages of the source.

Legend:
HSV [1] = conditions: once-daily; efficacy comparable to valacyclovir twice daily for 3 days
HSV-2 [2] = test system: HSV-2
HSV-2 [3] = conditions: human, in vivo
HSV [4] = conditions: patients with genital herpes

## Nc1nc2c(ncn2CCC(CO)CO)c(=O)[nH]1 [Penciclovir, penciclovir]
other
  oral bioavailability: not orally bioavailable

## Cc1cccc(C)c1N(CC(=O)Nc1ccc(-c2ncon2)cc1)C(=O)C1CCS(=O)(=O)CC1 [amenamevir]
HSV [1]
  time to lesion healing shortened by: 1 to 2 days

## CC(C)[C@H](N)C(=O)OCCOCn1cnc2c(=O)[nH]c(N)nc21 [valacyclovir]
HSV-2 [2]; at 6 months, placebo 7%
  proportion of patients who remained recurrence-free: 55%
HSV-2 [2]; at 12 months, placebo 4%
  proportion of patients who remained recurrence-free: 34%
HSV-2 [3]
  reduction of transmission of HSV-2 from infected persons to uninfected partners: 48%

## Cc1nc(N(C)C(=O)Cc2ccc(-c3ccccn3)cc2)sc1S(N)(=O)=O [Pritelivir, pritelivir]
HSV [4]
  reduction of viral shedding and lesion rate: has shown efficacy
